Laboratory results from patent US20060003950A1, “Method of treating prostatic diseases using a combination of vitamin D analogues and other agents” (priority 2004, published 2006).

Columns and labels:
[1] = target: T1, vitamin D receptor (VDR) (Homo sapiens, UniProt P11473); experiment: Vitamin D-inducible growth hormone reporter production in transfected COS-1 cells
T1 sequence (P11473 1-427): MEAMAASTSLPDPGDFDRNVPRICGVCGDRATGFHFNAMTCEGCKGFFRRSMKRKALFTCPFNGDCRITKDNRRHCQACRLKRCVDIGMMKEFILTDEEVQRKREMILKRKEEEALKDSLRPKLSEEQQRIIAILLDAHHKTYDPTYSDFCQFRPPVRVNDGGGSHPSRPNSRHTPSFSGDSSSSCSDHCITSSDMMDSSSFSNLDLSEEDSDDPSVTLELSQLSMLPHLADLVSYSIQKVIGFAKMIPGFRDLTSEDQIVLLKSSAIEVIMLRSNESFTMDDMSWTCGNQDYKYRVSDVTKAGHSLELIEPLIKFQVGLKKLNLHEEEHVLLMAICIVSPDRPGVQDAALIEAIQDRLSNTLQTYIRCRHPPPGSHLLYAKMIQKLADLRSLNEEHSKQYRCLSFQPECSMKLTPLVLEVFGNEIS
Procedure: Cells in culture were co-transfected into Green monkey kidney, COS-1 cells with these two plasmids. One plasmid contained the gene for Growth Hormone (GH) under the control of the vitamin D responsive element (VDRE) and the other plasmid contained the structural gene for the vitamin D receptor (VDR). These transfected cultures were incubated with 1α,24-(OH)2D2 or 1α,25-(OH)2D3, and the production of growth hormone was measured.

[2] = system: LNCaP; experiment: Stimulation of prostate cell differentiation (PSA), LNCaP; assay type: cell-based, human; conditions: 10^−11 M to 10^−7 M, 6-7 days
Procedure: Using the techniques of Skowronski et al., 132 Endocrinology (1993) 1952-1960 and 136 Endocrinology (1995) 20-26, both of which are incorporated herein by reference, cells of the cell line, LNCaP, which is derived from a human metastatic prostate adenocarcinoma and known to express PSA, are seeded in six-well tissue culture plates at a density of about 50,000 cells/plate. After the cells have attached and stabilized, about 2-3 days, the medium is replenished with medium containing vehicle or the active vitamin D analogue, 1α,24-(OH)2D2, at concentrations from 10^−11 M to 10^−7 M. After 6-7 days, the medium is removed and stored at −20° C. for prostate specific antigen (PSA) analysis.
The cells from parallel cultures are rinsed, precipitated, and the amount of DNA determined by standard procedures. PSA is measured by standard known methods.

[3] = system: Patients with advanced androgen-independent prostate cancer; experiment: Open-labeled clinical study of oral 1α,24-(OH)2D2; assay type: in vivo; conditions: daily oral, first phase
Description: On admission to the study, patients begin a course of therapy with oral 1α,24-(OH)2D2 lasting 26 weeks, while discontinuing any previous use of calcium supplements, vitamin D supplements, and vitamin D hormone replacement therapies. During treatment, the patients are monitored at regular intervals for: (1) hypercalcemia, hyperphosphatemia, hypercalciuria, hyperphosphaturia and other toxicity; (2) evidence of changes in the progression of metastatic disease; and (3) compliance with the prescribed test drug dosage.
The study is conducted in two phases. During the first phase, the maximal tolerated dosage (MTD) of daily oral 1α,24-(OH)2D2 is determined by administering progressively higher dosages to successive groups of patients. All doses are administered in the morning before breakfast. […] Subsequent groups of patients are treated with 50.0, 75.0 and 100.0 μg/day.
During the second phase, patients are treated with 1α,24-(OH)2D2 for 24 months at 0.5 and 1.0 times the MTD.

[4] = target: T2, prostate VDR (Homo sapiens, UniProt P11473); experiment: VDR binding in soluble extract of prostate-derived cell lines, competition with 3H-1α,25-(OH)2D3; conditions: 0.01-100 nM against 1 nM 3H-1α,25-(OH)2D3, 16-20 hr at 4° C.
T2 construct: endogenous in cells
T2 sequence (P11473 1-427): T1 sequence (P11473 1-427)
Procedure: Prostate-derived cell lines are cultured to near confluence, washed and harvested by scraping. Cells are washed by centrifugation, and the cell pellet resuspended in a buffered salt solution containing protease inhibitors. The cells are disrupted by sonication while cooling on ice. The supernatant obtained from centrifuging the disrupted cells at 207,000×g for 35 min at 4° C. is assayed for binding. […] Bound and free hormones are separated with hydroxylapatite using standard procedures. Specific binding is calculated by subtracting nonspecific binding obtained in the presence of a 250-fold excess of nonradioactive 1α,25-(OH)2D3 from the total binding measured.

[5] = system: LNCaP; experiment: Inhibition of prostate cell proliferation (DNA amount), LNCaP; assay type: cell-based, human; conditions: 10^−11 M to 10^−7 M, 6-7 days
Procedure: (§1) The cell lines, LNCaP and PC-3, which are derived from human prostate adenocarcinoma, are seeded in six-well tissue culture plates at a density of about 50,000 cells/plate. After the cells have attached and stabilized, about 2-3 days, the medium is replenished with medium containing vehicle or the active vitamin D analogue 1α,24-(OH)2D2, at concentrations from 10^−11 M to 10^−7 M. Medium containing test analogue or vehicle is replaced every three days. After 6-7 days, the medium is removed, the cells are rinsed, precipitated with cold 5% trichloroacetic acid, and washed with cold ethanol. The cells are solubilized with 0.2 N sodium hydroxide, and the amount of DNA determined by standard procedures.

[6] = system: PC-3; experiment: Inhibition of prostate cell proliferation (DNA amount), PC-3; assay type: cell-based, human; conditions: PC-3, 10^−11 M to 10^−7 M, 6-7 days
Procedure: as §1

C=C1/C(=C\C=C2/CCC[C@]3(C)[C@@H]([C@H](C)/C=C/[C@@](C)(O)C(C)C)CC[C@@H]23)C[C@@H](O)C[C@@H]1O [1α,24(S)—(OH)2D2, 1α,24(S)-dihydroxyvitamin D2]
Total GH Production* ([1]; Molar Concentration 5 × 10^−8): 1182 ng/mL
Total GH Production* ([1]; Molar Concentration 5 × 10^−9): 1350 ng/mL
Total GH Production* ([1]; Molar Concentration 5 × 10^−10): 425 ng/mL

C=C1/C(=C\C=C2/CCC[C@]3(C)[C@@H]([C@H](C)/C=C/C(C)(O)C(C)C)CC[C@@H]23)C[C@H](O)C[C@H]1O (stereo partly drawn) [1α,24-(OH)2D2, 1α,24-dihydroxyvitamin D2]
PSA versus control cultures, mass of PSA/cell [2]: significantly more PSA than control cultures
MTD relative to level achievable with 1α,25-(OH)2D3 [3]: 10- to 40 fold
maximal tolerated dosage (MTD) [3]: above 20.0 μg/day
affinity for prostate VDR [4]: strong affinity
cell number versus control cultures [5]: significantly fewer cells than the control cultures
cell number versus control cultures [6]: significantly fewer cells than the control cultures

C=C1CC[C@H](O)C/C1=C/C=C1\CCC[C@]2(C)[C@@H]([C@H](C)CCCC(C)(C)O)CC[C@@H]12 [25-OH-D3, reference compound]
Total GH Production* ([1]; Molar Concentration 1 × 10^−5): 775 ng/mL
Total GH Production* ([1]; Molar Concentration 1 × 10^−6): 1100 ng/mL
Total GH Production* ([1]; Molar Concentration 1 × 10^−7): 245 ng/mL

C=C1/C(=C\C=C2/CCC[C@]3(C)[C@@H]([C@H](C)/C=C/[C@](C)(O)C(C)C)CC[C@@H]23)C[C@@H](O)C[C@@H]1O [1α,24(R)—(OH)2D2, 1α,24(R)-dihydroxy-vitamin D2]
Total GH Production* ([1]; Molar Concentration 1 × 10^−7): 1300 ng/mL
Total GH Production* ([1]; Molar Concentration 1 × 10^−8): 1100 ng/mL
Total GH Production* ([1]; Molar Concentration 1 × 10^−9): 80 ng/mL
